The values that follow come from patent publication US20100113430A1, “THIOXANTHENE DERIVATES USEFUL TO TREAT INFECTIOUS DISEASES” (BKG PHARMA APS, priority 2007, published 2010).

The test system of one data set is uninfected MT4 cells. In words: Cytotoxic effect in uninfected MT4 cultures. The conditions noted are these: six days. The format is cell-based. As to the method: Compounds were examined for possible antiviral activity against strain IIIB of HIV-1 using MT4 cells as target cells. MT4 cells were incubated with virus (0.005 MOI) and growth medium containing the test dilutions of compound(s) for six days in parallel with virus-infected and uninfected control cultures without compound added. Expression of HIV in the cultures was indirectly quantified using the MTT assay as previously described. Compounds mediating less than 30% reduction of HIV expression were considered without biological activity. Compounds were tested in parallel for cytotoxic effect in uninfected MT4 cultures containing the test dilutions of compound as described above. Cultures for test of both antiviral activity and cytotoxic effect were set up in triple duplicates, 200 ml per culture in micro titre plates. A 30% inhibition of cell growth relative to control cultures was considered significant. The 50% inhibitory concentration was determined by interpolation from the plots of percent inhibition versus concentration of compound. CC50 is defined as the inhibitory concentration that reduces cellular growth or viability of uninfected cells by 50%.

Data set [1] deals with Enterococcus faecalis resistant clinical isolates. In words: MIC/IC90, resistant clinical isolates of Enterococcus faecalis. The format is cell-based. On the procedure: Cell growth was tested using the Minimal Inhibitory Concentration (MIC) susceptibility tests by use of the microdilution broth method in accordance to the NCCLS Guidelines (NCCLS Guidelines, Methods for Dilution Antimicrobial Susceptibility Tests for Bacteria That Grow Aerobically; Approved Standard, Sixth Edition, Volume 23; Number 2). The minimum inhibitory concentration (MIC), is defined ad the lowest concentration of drug which inhibits growth of the test organism, in the sense that no visible growth is detected (total inhibition of growth). In example 2 MIC of the compounds used on fungal microorganisms was determined from the IC90 measurements according to NCCLS Guidelines.
A log phase culture of bacteria was diluted with fresh pre-warmed Mueller-Hinton medium and adjusted to a defined OD at 600 nm in order to give a final concentration of 1×10^4-5 bacteria/ml medium. The bacterial culture was transferred to microtiter-plates and culture was added to each well. Drug was added to the bacterial culture in the wells as two-fold dilution series of drug in order to give final concentrations ranging from 0.03 to 128 μg/ml. Trays were incubated at 37° C. by shaking in a robot analyzer, PowerWavex, software KC^4′ Kebo.Lab, Copenhagen, for 16 h and optical densities were measured at 600 nm during the incubation time in order to record growth curves. Wells containing bacterial culture without drug were used as controls to ensure correct inoculum size and bacterial growth during the incubation. Cultures were tested in order to detect contaminations. Each experiment was repeated in triplicate. MIC values represent the mean values of two separate triplicate experiments. Intra- and interassay variation was <5%.
Inhibition 90 (IC90) is defined as: OD responding a 90% growth inhibition.
Clinically relevant isolates were cultured and assayed as described above.

The mark [2] stands for this setting: Enterococcus faecalis 10, BLR, CR.

What is called CC50 is the concentration at which the toxic effect on the cells reaches its halfway point. A high value points to lower toxicity to the cells. In general, IC90 refers to the point of the concentration-response curve where the effect stands at 90%. Low values mean greater potency, high ones weaker potency. One may read the MIC as the lowest concentration that inhibits growth of the organism. A lower MIC goes with inhibition by little substance.

Converted amounts (≈) assume the structure as drawn.

Consider `Clc1ccc2c(c1)/C(=C/CCN1CCNCC1)c1ccccc1S2` [N-dealkyl-trans-clopenthixol, trans-1-(3-(2-chloro-thioxanthen-9-ylidene)propyl)piperazine], for which the 50% cytotoxic concentration (CC50) in the data set on uninfected MT4 cells is greater than 3 µM. The 90% effect concentration (IC90) worked out at 0.6 µg/mL (≈ 1.68 µM) in data set [1] (Enterococcus faecalis 1, VanA); 0.6 µg/mL (≈ 1.68 µM) in data set [1] (Enterococcus faecalis 2, VanA); 0.6 µg/mL (≈ 1.68 µM) in data set [1] (Enterococcus faecalis 4, VanB); 1 µg/mL (≈ 2.8 µM) in data set [1] (Enterococcus faecalis 5, Van B); 0.6 µg/mL (≈ 1.68 µM) in data set [1] (Enterococcus faecalis 6, VanB); 0.6 µg/mL (≈ 1.68 µM) in data set [1] (Enterococcus faecalis 7, VanA). The concentration for an effect of 90% (IC90) in data set [1] (Enterococcus faecalis 8, HLAR) amounted to 0.6 µg/mL (≈ 1.68 µM); in data set [1] (Enterococcus faecalis 9, HLAR), 0.6 µg/mL (≈ 1.68 µM); in data set [1] (setting [2]) it was 0.6 µg/mL (≈ 1.68 µM). For the same compound, the MIC in data set [1] (Enterococcus faecalis 1, VanA) turned out to be 1 µg/mL (≈ 2.8 µM); in data set [1] (Enterococcus faecalis 2, VanA), 1 µg/mL (≈ 2.8 µM); in data set [1] (Enterococcus faecalis 3, VanA), 1 µg/mL (≈ 2.8 µM); in data set [1] (Enterococcus faecalis 4, VanB) it was 1 µg/mL (≈ 2.8 µM); in data set [1] (Enterococcus faecalis 5, Van B), 2 µg/mL (≈ 5.6 µM); in data set [1] (Enterococcus faecalis 6, VanB), 1 µg/mL (≈ 2.8 µM). The minimal inhibitory concentration (MIC) in data set [1] (Enterococcus faecalis 7, VanA) worked out at 1 µg/mL (≈ 2.8 µM); in data set [1] (Enterococcus faecalis 8, HLAR) it was 1 µg/mL (≈ 2.8 µM); in data set [1] (Enterococcus faecalis 9, HLAR) it was 1 µg/mL (≈ 2.8 µM); in data set [1] (setting [2]), 1 µg/mL (≈ 2.8 µM).
